{
  "source": "patent US20160361342A1",
  "about": "“USE OF ALGINATE OLIGOMERS IN THE TREATMENT OF CYSTIC FIBROSIS AND OTHER CONDITIONS ASSOCIATED WITH DEFECTIVE CFTR ION CHANNEL FUNCTION” (ALGIPHARAMA AS, priority 2014, published 2016)",
  "origin": "cited, not measured here",
  "test_system": "ileum explants from mutant mice",
  "conditions": "apical medium supplemented with sodium bicarbonate at levels predicted to be reached by wild type CFTR",
  "data": [
    {"compound": "O=C([O-])O.[Na+]", "note": "[sodium bicarbonate]", "values": [
      {"measurement": "attached mucus phenotype", "value": "can be reversed"}
    ]}
  ]
}
